Tests used:
PDGFR = PDGFR kinase HTRF assay; format: biochemical; settings: 2.3 μM ATP
Protocol: (§1) To determine inhibition of KDR, FGFR, EGFR, and PDGFR activity, kinase assays were conducted using an HTRF (Homogeneous Time Resolved Fluorescence) assay. This assay is described in A. J. Kolb et. al., Drug Discovery Today, 1998, 3(7), p 333.
(§2) Kinase activity assays were performed in 96-well polypropylene plates (Falcon) with a total volume of 90 μL in each well. Each well contained 1 μM KDR substrate (Biotin-EEEEYFELVAKKKK), 1 nM activated KDR, and a test compound with one of 8 assay concentrations ranging from 100 μM to […] (1:5 serial dilution). The kinase activity assay was done in the presence of 100 mM HEPES, pH 7.4, 1 mM DTT, 0.1 mM Na2VO4, 25 mM MgCl2, 50 mM NaCl (from KDR stock solution), 1% DMSO (from compound), 0.3 mM ATP (at Km concentration) and 0.02% BSA. The reaction was incubated at 37° C. for 30 minutes. To stop the KDR reaction, 72 μL of reaction mixture was transferred into a STOP plate containing 18 μL of revelation buffer (20 mM EDTA, 50 mM HEPES, pH 7.4, 0.02% BSA, 10 nM Eu-labelled anti-pY antibody (final conc. 2 nM), and 100 nM streptavidin (final conc. 20 nM)). After mixing, 35 μL of solution was transferred into duplicate wells of a 384-well black plate (Costar), and read at 615/665 nm on a Wallac Victor 5 reader.
(§3) The PDGFR kinase activity assay was performed with 1 μM substrate (Biotin-EEEEYFELV), 1.0 nM PDGFR, test compounds, 100 mM HEPES, pH 7.4, 1 mM DTT, 5 mM MgCl2, 2 mM MnCl2, 1% DMSO, 2.3 μM ATP (Km for PDGFR), 0.1 mM Na2VO4, and 0.02% BSA. The rest of the assay was performed in the same manner as the KDR assay.
(§4) Compound IC50 values were determined from duplicate sets of data, and calculated by using Excel and fitting data to equation Y=[(a−b)/{1+(X/c)^d]+b, where a and b are enzyme activity in the presence of no test inhibitor compound and an infinite amount of inhibitor test compound, respectively, c is the IC50 and d is the hill constant of the compound response. The IC50 value is the concentration of test compound that reduces by 50% the enzyme activity under the test conditions described.

FGFR = target: T1, FGFR; assay: FGFR kinase HTRF assay; format: biochemical; settings: 10 μM ATP
T1 construct: fused on or other part: GST tag
Protocol: as §1, §2
FGFR, EGFR, and PDGFR activity assays were carried out as described above for the KDR activity assay with the following differences. GST-tagged FGFR enzyme was activated at room temperature for 1 hour in the following activation buffer: 100 mM HEPES, pH 7.4, 50 mM NaCl, 20 mM MgCl2, and 4 mM ATP. The kinase activity assay was performed with 1 μM substrate (Biotin-EEEEYFELV), 1.5 nM activated FGFR, and test compound in the presence of 100 mM HEPES, 1 mM DTT, 0.4 mM MgCl2, 0.4 mM MnCl2, 50 mM NaCl, 1% DMSO, 10 μM ATP (Km=8.5 μM for FGFR), 0.1 mM Na2VO4, and 0.02% BSA, in a total volume of 90 μL. The rest of the assay was performed in the same manner as KDR assay.
as §4

KDR = target: T2, KDR (Homo sapiens, UniProt P35968); assay: KDR kinase HTRF assay; format: biochemical; settings: 0.3 mM ATP
T2 construct: EEE tag
Protocol: as §1
Prior to kinase reaction, recombinant EEE-tagged KDR was activated in the presence of activation buffer (50 mM HEPES, pH 7.4, 1 mM DTT, 10% glycerol, 150 mM NaCl, 0.1 mM EDTA, 26 mM MgCl2, and 4 mM ATP). The enzyme was incubated at 4° C. for 1 hour.
as §2, §4

EGFR = EGFR (Homo sapiens, UniProt P00533); assay: EGFR kinase HTRF assay; format: biochemical; settings: 0.5 μM ATP
Protocol: as §1, §2
as §3, with “EGFR” for “PDGFR”, “1.5” for “1.0”, “EGFR,” for “PDGFR,”, “0.5” for “2.3”, “EGFR),” for “PDGFR),”
as §4

[1] = tested on: Human umbilical vein endothelial cells; assay: FGF-stimulated HUVEC proliferation assay (BrdU); format: cell-based; settings: FGF 5 ng per mL, BrdU labeling, read-out: HUVEC/bFGFR IC50
Protocol: (§5) The antiproliferative activity of test-compounds of this invention in cell-based assays was evaluated by BrdU assay using the BrdU kit (Roche Biochemicals 1-647-229). Human umbilical vein endothelial cells (Clonetics CC-2519) were cultured in EGM-2 (Clonetics CC-3162) medium and seeded at 10000 cells per well in a volume of 200 μL of EGM-2 (Clonetics CC-3162) media in a 96-well flat bottom plates (Costar 3595) overnight. After 24 hours of growth at 37° C. with 5% CO2, the incubation media was removed slowly by aspiration and the content of each well was washed with 300 μL pre-warmed EBM-2 (Clonetics CC-3156) containing 50 μg per mL of gentamycin and 50 ng per mL of amphotercin-B (Clonetics CC-4083). […]
(§6) After 24 hour exposure to the test compounds, the cells were labeled with BrdU (Roche Biochemicals 1-647-229), by adding 20 μL per well of BrdU labeling reagent that has been diluted (1:100) in serum starvation medium. […] The plates were read at 450 nm with reference wavelength of 650 nm. The percent inhibition for each test compound was calculated by subtracting the absorbency of the blank (no cells) wells from all wells, then subtracting the division of the average absorbency of each test duplicate by the average of the controls from 1. […] The IC50 is determined from the linear regression of a plot of the logarithm of the concentration versus percent inhibition.

[2] = tested on: Human umbilical vein endothelial cells; assay: VEGF-stimulated HUVEC proliferation assay (BrdU); format: cell-based; settings: VEGF 20 ng per mL, BrdU labeling, read-out: HUVEC/VEFG IC50
Protocol: as §5, §6

T2 sequence (P35968 20-1356): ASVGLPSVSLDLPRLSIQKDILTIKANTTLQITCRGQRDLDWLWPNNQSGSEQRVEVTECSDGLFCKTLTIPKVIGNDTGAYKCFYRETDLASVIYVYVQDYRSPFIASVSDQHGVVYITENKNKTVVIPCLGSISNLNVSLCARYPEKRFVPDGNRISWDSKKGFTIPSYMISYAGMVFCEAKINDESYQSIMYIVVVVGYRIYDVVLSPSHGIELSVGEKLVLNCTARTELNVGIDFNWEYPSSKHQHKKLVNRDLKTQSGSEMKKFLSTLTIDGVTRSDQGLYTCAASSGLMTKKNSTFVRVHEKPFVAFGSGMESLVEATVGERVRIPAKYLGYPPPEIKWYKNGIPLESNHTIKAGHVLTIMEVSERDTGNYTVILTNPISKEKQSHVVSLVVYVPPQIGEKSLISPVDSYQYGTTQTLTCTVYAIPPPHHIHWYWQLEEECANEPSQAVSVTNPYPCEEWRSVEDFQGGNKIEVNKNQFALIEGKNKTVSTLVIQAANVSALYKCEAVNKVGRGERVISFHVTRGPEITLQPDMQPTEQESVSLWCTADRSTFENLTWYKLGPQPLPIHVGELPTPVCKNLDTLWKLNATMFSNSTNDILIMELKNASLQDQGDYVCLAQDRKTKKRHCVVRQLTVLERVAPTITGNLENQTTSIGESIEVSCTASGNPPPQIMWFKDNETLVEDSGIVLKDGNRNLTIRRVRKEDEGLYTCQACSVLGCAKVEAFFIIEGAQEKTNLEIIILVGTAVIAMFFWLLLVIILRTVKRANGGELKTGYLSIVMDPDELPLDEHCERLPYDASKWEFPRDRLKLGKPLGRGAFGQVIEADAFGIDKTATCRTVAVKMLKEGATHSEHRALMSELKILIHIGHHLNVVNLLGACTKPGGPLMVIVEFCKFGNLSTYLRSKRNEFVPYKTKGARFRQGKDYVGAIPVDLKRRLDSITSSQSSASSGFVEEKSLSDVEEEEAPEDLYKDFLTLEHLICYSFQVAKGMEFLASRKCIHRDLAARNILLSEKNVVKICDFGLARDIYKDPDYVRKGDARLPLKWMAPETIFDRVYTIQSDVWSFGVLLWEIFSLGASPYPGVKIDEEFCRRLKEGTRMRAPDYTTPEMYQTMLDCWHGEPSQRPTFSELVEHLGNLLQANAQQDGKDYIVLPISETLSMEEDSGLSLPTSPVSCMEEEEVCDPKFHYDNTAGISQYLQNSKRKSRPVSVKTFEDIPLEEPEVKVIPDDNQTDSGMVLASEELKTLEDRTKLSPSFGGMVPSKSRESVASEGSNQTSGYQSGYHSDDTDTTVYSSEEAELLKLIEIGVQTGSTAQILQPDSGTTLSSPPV
Chain of EGFR (P00533 25-1210, species assumed): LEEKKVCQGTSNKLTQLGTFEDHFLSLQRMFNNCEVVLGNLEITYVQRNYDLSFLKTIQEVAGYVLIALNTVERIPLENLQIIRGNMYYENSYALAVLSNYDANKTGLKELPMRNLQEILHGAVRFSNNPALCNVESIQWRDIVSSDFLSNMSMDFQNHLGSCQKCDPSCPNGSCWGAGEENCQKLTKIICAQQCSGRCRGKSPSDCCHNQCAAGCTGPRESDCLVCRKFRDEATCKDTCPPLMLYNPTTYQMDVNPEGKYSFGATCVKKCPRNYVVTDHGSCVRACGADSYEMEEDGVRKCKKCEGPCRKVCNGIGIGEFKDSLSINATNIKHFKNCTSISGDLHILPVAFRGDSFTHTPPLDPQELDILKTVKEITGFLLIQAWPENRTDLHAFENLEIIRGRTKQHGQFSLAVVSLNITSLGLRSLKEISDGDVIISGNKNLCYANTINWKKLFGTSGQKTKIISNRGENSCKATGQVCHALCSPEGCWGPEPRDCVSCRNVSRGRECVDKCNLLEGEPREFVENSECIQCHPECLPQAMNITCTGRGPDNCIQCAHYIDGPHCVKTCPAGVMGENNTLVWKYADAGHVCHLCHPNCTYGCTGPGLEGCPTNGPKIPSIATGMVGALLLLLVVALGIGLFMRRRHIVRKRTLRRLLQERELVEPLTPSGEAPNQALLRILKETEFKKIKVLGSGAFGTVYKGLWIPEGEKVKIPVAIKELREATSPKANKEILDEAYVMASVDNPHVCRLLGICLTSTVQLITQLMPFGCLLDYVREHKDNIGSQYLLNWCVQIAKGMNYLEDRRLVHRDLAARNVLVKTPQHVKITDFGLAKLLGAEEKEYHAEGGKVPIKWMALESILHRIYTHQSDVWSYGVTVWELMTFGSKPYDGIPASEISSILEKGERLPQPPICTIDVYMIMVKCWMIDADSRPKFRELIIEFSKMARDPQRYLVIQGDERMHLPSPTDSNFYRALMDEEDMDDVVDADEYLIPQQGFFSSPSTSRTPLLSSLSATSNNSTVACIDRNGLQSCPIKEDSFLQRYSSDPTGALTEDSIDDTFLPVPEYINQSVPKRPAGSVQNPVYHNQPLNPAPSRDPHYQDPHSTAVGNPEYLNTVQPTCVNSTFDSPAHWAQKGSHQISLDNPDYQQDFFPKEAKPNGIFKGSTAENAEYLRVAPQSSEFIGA

| Compound | IC50 (PDGFR) [µM] | IC50 (FGFR) [µM] | IC50 (KDR) [µM] | IC50 (EGFR) [µM] | IC50 [1] [µM] | IC50 [2] [µM] |
| --- | --- | --- | --- | --- | --- | --- |
| O=C1C(c2c(Cl)cccc2Cl)Cc2cnc(Nc3ccccc3)nc2N1c1ccccc1 (stereo not drawn) [Example 2c, 6-(2,6-Dichloro-phenyl)-8-phenyl-2-phenylamino-5,8-dihydro-6H-pyrido[2,3-d]pyrimidin-7-one] | < 10 | < 10 | < 10 | < 10 | < 10 | < 10 |
| COc1ccc(C2Cc3cnc(Nc4ccccc4)nc3N(c3ccccc3)C2=O)cc1 (stereo not drawn) [Example 1f, 6-(4-Methoxy-phenyl)-8-phenyl-2-phenylamino-5,8-dihydro-6H-pyrido[2,3-d]pyrimidin-7-one] | < 10 | < 10 | < 10 | < 10 | – | – |
| O=C1C(c2ccncc2)Cc2cnc(Nc3ccccc3)nc2N1c1ccccc1 (stereo not drawn) [Example 9c, 8-Phenyl-2-phenylamino-6-pyridin-4-yl-5,8-dihydro-6H-pyrido[2,3-d]pyrimidin-7-one] | > 10 | > 10 | < 10 | < 10 | – | – |
| COc1ccc(C2Cc3cnc(Nc4ccc(OC)nc4)nc3N(c3ccccc3)C2=O)cc1 (stereo not drawn) [Example 12d, 6-(4-Methoxy-phenyl)-2-(6-methoxy-pyridin-3-ylamino)-8-phenyl-5,8-dihydro-6H-pyrido[2,3-d]pyrimidine-7-one] | < 10 | < 10 | < 10 | < 10 | – | – |
| COc1ccc(C2Cc3cnc(Nc4ccccc4)nc3N(CC3CC3)C2=O)cc1 (stereo not drawn) [Example 14b, 8-Cyclopropylmethyl-6-(4-methoxy-phenyl)-2-phenylamino-5,8-dihydro-6H-pyrido[2,3-d]pyrimidine-7-one] | < 10 | < 10 | < 10 | < 10 | – | – |

Now from value to compound, other results behind:

| IC50 (PDGFR) [µM] | IC50 (FGFR) [µM] | IC50 (KDR) [µM] | IC50 (EGFR) [µM] | Compound | IC50 [1] [µM] | IC50 [2] [µM] |
| --- | --- | --- | --- | --- | --- | --- |
| < 10 | < 10 | < 10 | < 10 | COc1ccc(OC)c(C2Cc3cnc(Nc4ccccc4)nc3N(c3ccccc3)C2=O)c1 (stereo not drawn) [Example 6c, 6-(2,5-Dimethoxy-phenyl)-8-phenyl-2-phenylamino-5,8-dihydro-6H-pyrido[2,3-d]pyrimidin-7-one] | – | – |
| < 10 | < 10 | < 10 | < 10 | COc1ccc(C2Cc3cnc(Nc4ccccc4)nc3N(CC(C)C)C2=O)cc1 (stereo not drawn) [Example 13b, 8-Isobutyl-6-(4-methoxy-phenyl)-2-phenylamino-5,8-dihydro-6H-pyrido[2,3-d]pyrimidine-7-one] | – | – |
| < 10 | < 10 | < 10 | > 10 | COc1ccc(C2Cc3cnc(Nc4ccccc4)nc3N(c3ccccc3)C2=O)cc1OC (stereo not drawn) [Example 11c, 6-(3,4-Dimethoxy-phenyl)-8-phenyl-2-phenylamino-5,8-dihydro-6H-pyrido[2,3-d]pyrimidin-7-one] | – | – |
| < 10 | < 10 | < 10 | < 10 | O=C1C(c2ccccc2)Cc2cnc(Nc3ccccc3)nc2N1c1ccccc1 (stereo not drawn) [Example 5c, 6,8-Diphenyl-2-phenylamino-5,8-dihydro-6H-pyrido[2,3-d]pyrimidin-7-one] | – | – |
| < 10 | > 10 | > 10 | > 10 | O=C1C(c2cc(C(F)(F)F)cc(C(F)(F)F)c2)Cc2cnc(Nc3ccccc3)nc2N1c1ccccc1 (stereo not drawn) [Example 8d, 6-(3,5-Bis-trifluromethyl-phenyl)-8-phenyl-2-phenylamino-5,8-dihydro-6H-pyrido[2,3-d]pyrimidin-7-one] | – | – |
| < 10 | < 10 | < 10 | < 10 | COc1ccccc1C1Cc2cnc(Nc3ccccc3)nc2N(c2ccccc2)C1=O (stereo not drawn) [Example 7c, 6-(2-Methoxy-phenyl)-8-phenyl-2-phenylamino-5,8-dihydro-6H-pyrido[2,3-d]pyrimidin-7-one] | – | – |
| < 10 | < 10 | < 10 | < 10 | O=C1C(c2cccnc2)Cc2cnc(Nc3ccccc3)nc2N1c1ccccc1 (stereo not drawn) [Example 10c, 8-Phenyl-2-phenylamino-6-pyridin-3-yl-5,8-dihydro-6H-pyrido[2,3-d]pyrimidin-7-one] | – | – |
| < 10 | < 10 | < 10 | < 10 | Cc1ccccc1C1Cc2cnc(Nc3ccccc3)nc2N(c2ccccc2)C1=O (stereo not drawn) [Example 4c, 8-Phenyl-2-phenylamino-6-O-tolyl-5,8-dihydro-6H-pyrido[2,3-d]pyrimidin-7-one] | – | – |

— patent US7098332B2, “5,8-Dihydro-6H-pyrido[2,3-d]pyrimidin-7-ones” (Hoffmann-La Roche Inc., priority 2002, dated 2006)
